Experimental data from patent US20260053790A1, “TREATMENTS FOR CONDITIONS INVOLVING INCREASED IL-6 LEVELS” (X4 Pharmaceuticals, Inc., priority 2022, published 2026).

What was measured:
[1] = test system: WM cells; test: Soluble IL-6 treatment of WM cells in the absence of BMSC: CXCR4 expression and IgM secretion; type: cell-based; conditions: blockade of IL-6/IL6R/STAT3 axis, FIG. 3
Text: FIG. 3: Even in the Absence of BMSC, Soluble IL-6 Upregulates CXCR4 Expression & IgM Secretion in WM Cells; which is Prevented by Blockade of IL-6/IL6R/STAT3 Axis. BP-1-102 is a STAT3 inhibitor.

[2] = Solubility of mavorixafor by pH and in water; type: physicochemical
Method: Mavorixafor (formerly designated X4P-001 and AMD11070) is a CXCR4 antagonist, with molecular formula C21H27N5; molecular weight 349.48 amu; and appearance as a white to pale yellow solid. Solubility: freely soluble in the pH range 3.0 to 8.0 (>100 mg/mL), sparingly soluble at pH 9.0 (10.7 mg/mL) and slightly soluble at pH 10.0 (2.0 mg/mL). […] Melting point: 108.9° C.

[3] = in vivo; conditions: Terminal half-life
Method: In certain embodiments, the dosage composition may be provided twice a day in divided dosage, approximately 12 hours apart. In other embodiments, the dosage composition may be provided once daily. […] Dosage for oral administration may be from about 100 mg to about 1200 mg once or twice per day.

[4] = test system: WM cells; test: Co-culture of BMSC with WM cells: BM stroma-induced IgM hypersecretion; type: cell-based; conditions: FIG. 2
[5] = test system: IL-6; test: IL-6 overexpression and hypersecretion (co-culture of BMSC with WM cells); type: cell-based; conditions: mavorixafor as a single agent

| SMILES | Soluble IL-6-induced upregulation of CXCR4 expression in WM cells [1] | Soluble IL-6-induced upregulation of IgM secretion in WM cells [1] | solubility ([2]; aqueous buffer, pH range 3.0 to 8.0 (freely soluble)) [mg/mL] | Solubility in water ([2]; water) | half-life [3] [h] | Bone marrow stroma-induced IgM hypersecretion in WM cells [4] | Overexpression and hypersecretion of IL-6 [5] |
| --- | --- | --- | --- | --- | --- | --- | --- |
| CN(CC(=O)N(Cc1ccc(C2CCCCC2)cc1)c1ccc(C(=O)O)c(O)c1)S(=O)(=O)c1c(F)c(F)c(F)c(F)c1F [BP-1-102] | Prevented | Prevented |  |  |  |  |  |
| NCCCCN(Cc1nc2ccccc2[nH]1)[C@H]1CCCc2cccnc21 [Mavorixafor, mavorixafor] |  |  | > 100 | only slightly soluble | 12 to 24 | blocks | significantly reduces |
